From patent US10167259B2, “Allosteric inhibitors of proteasome and methods of use thereof” (THE BOARD OF REGENTS OF THE UNIVERSITY OF TEXAS SYSTEM, priority 2013, dated 2019) come the findings set out here.

In series [1] the test system is chymotrypsin-like activity of the core particle (CP; 20S). The series is described as follows: Inhibition of chymotrypsin-like peptidase activity of the proteasome core particle.
A further series can be described thus: Solubility in solvents. Format: physicochemical.
In series [2] the target is core proteasome activated by Rpt2 and Rpt5 tail peptides. The series is described as follows: Blocking activation of core proteasome chymotrypsin-like activity by Rpt2 and Rpt5 tail peptides. Type of series: biochemical. An excerpt:
(§1) The grooves are utilized by Rpt2, Rpt3 and Rpt5 subunits that anchor the regulatory particle to the core particle (Lander, et al., 2009). The anchoring C-terminal tails of Rpt2 and Rpt5 subunits are responsible for core particle gate opening and activation (Lander, et al., 2009). Activation of the core by both Rpt2 and Rpt5 tails is affected by B1 (FIG. 2C). The groove accommodating the C-terminal tail of Rpt2 subunit may be a primary docking place for B1, or B1 may allosterically affect binding of Rpt2 C-terminal tail with an exceptionally high efficiency (FIG. 2D). In vitro reconstruction of the 26S proteasome assembly from the core particle (20S) and regulatory particle (19S) components is attenuated by the treatment with B1 (FIG. 2E).

In series [3] the target is core particle (20S) activated by regulatory particle 19S. The series is described as follows: In vitro activation of the core by purified regulatory particle 19S (26S reconstruction). Format: biochemical. Particulars: FIG. 2E; read-out: IC50, interference with in vitro activation of the core by purified regulatory particle 19S.
From the text: as §1

The next series concerns the target mTOR (Homo sapiens, UniProt P42345). The series can be described thus: mTOR activity in HeLa cells (Western blot with anti-phosphoS6 antibodies). Type of series: cell-based. Particulars: up to 100 nM, FIG. 3B. (Immunoblotting shows a protein as a band on a membrane.)
Series [4] can be described thus: Stability in the presence of cell lysate or purified CP (RP-HPLC). Format: in vitro ADME. Particulars: cell lysate 0.5 mg/ml or purified CP, up to 1 h at 37° C., FIG. 3C. How it is done: (§2) The in vitro effects of the compound B1 are also detectable in cell lysates (FIGS. 3A-E). The total chymotrypsin-like activity of the proteasome in the Mcf7 and Mcf10A lysates was measured. […] Also, B1 appears to be stable in the presence of the whole cell lysate or the purified core particle (FIG. 3C).

Another series concerns MCF-7 cells. Type of series: cell-based.
The subject of another series is MDA-MB-231 cells. Format: cell-based.
For another series, the system named is MCF-10A cells. Type of series: cell-based. The conditions noted are these: 160 nM; FIG. 3D.
The test system of series [5] is multiple myeloma RPMI8226 cells. The series is described as follows: Growth and viability of multiple myeloma RPMI8226 cells. Particulars: B1 alone. Type of series: cell-based.
Series [6] relates to polyubiquitinated proteins in MDA-MB-231 cells. The series is described as follows: Accumulation of polyubiquitinated proteins in treated MDA-MB-231 cells (Western blot, FK-1). Particulars: MDA-MB-231, 24 hrs, 160 nM; FIG. 3E. Format: cell-based.
Series [7] concerns proteasome (20S and 26S) in multiple myeloma cells. The series can be described thus: Proteasome activity in lysates of treated cultured multiple myeloma cells. Type of series: cell-based.
Series [8] concerns proteasome chymotrypsin-like activity in Mcf7 lysate. The series can be described thus: Total chymotrypsin-like activity of the proteasome in cell lysates. Type of series: biochemical. How it is done:
as §2

The subject of series [9] is post-glutamyl peptidase of the core particle. The series is described as follows: Inhibition of post-glutamyl peptidase of the core particle. Particulars: allosteric, noncompetitive.
Series [10] deals with core proteasome α face (gate conformers). The series is described as follows: Atomic force microscopy (AFM) imaging of core proteasome gate conformers. The conditions noted are these: FIG. 1E.
The next series deals with 26S proteasome assembly. The series can be described thus: Inhibition of proteinase activity of the 26S proteasome (casein-BODIPY degradation). Particulars: read-out: IC50, inhibition of proteinase activity of the 26S proteasome assembly; model substrate casein-BODIPY; FIG. 1C.
Setting [11] is: Chou-Talalay, fraction affected >0.3, mostly 1:1 conc. ratio.

On to `COc1cc(/C=C/CCCOC(=O)C2CCCCN2C(=O)C(=O)C2CCCCC2)cc(OC)c1OC` (stereo not drawn) [B4], for which the “Inhibitory properties toward the core proteasome after modification of B1” value in series [1] is reported as “does not erase the inhibitory properties”.
Same read-out and setting: the same measure for `COc1cc(CCCCCOC(=O)C2CCCCN2C(=O)C(=O)C2CCCCC2)cc(OC)c1OC` (stereo not drawn) [B5]: “does not erase the inhibitory properties”.
With `COc1cc(CCCNC(=O)C2CCCCN2C(=O)C(=O)C2CCCCC2)cc(OC)c1OC` (stereo not drawn) [B2], in the series “Solubility in solvents”, the “Soluble in” value is “DMSO, CDCl3”. Also, the “Inhibitory properties toward the core proteasome after modification of B1” value in [1] is “does not erase the inhibitory properties”.
Consider `COc1cc(CCCOC(=O)C2CCCCN2C(=O)C(=O)C2CCCCC2)cc(OC)c1OC` (stereo not drawn) [B1], for which the half-maximal inhibitory concentration (IC50) in series [2] (FIG. 2C) is around 2 nM; in [3], 7.8 nM; in series [5] (Homo sapiens, RPMI-8226, FIG. 3D, read-out: IC50, multiple myeloma cultured cells), 59 nM; in [1] (read-out: IC50, inhibition of chymotrypsin-like activity of the core particle, FIG. 1B), 19 nM; on 26S proteasome assembly, 41 nM. For the same compound, in series [2] (tail present at high, micromolar-range concentrations, FIG. 2D), the “Blocking activation of the core by the Rpt2 tail” value is listed as “exceptionally effective”. At mTOR, the “Effect on mTOR activity” value is given as “does not inhibit mTOR activity”. The “Stability in the presence of cell lysate or purified CP” value in series [4] is “remains intact”. Further, the “Cytotoxicity to MCF-7 cells” value in the series with MCF-7 cells (B1 alone, 40 nM, 24 hrs, trypan blue exclusion, FIG. 3D) is recorded as “cytotoxic”. Also, the “Combination Index (CI) with bortezomib, MCF-7” value in the series with MCF-7 cells (setting [11]) was “below 1”. Besides, the “Cytotoxicity to MDA-MB-231 cells” value with MDA-MB-231 cells (B1 alone, 160 nM, 24 hrs, trypan blue exclusion, FIG. 3D) is reported as “cytotoxic”. Also, the “Combination Index (CI) with bortezomib, MDA-MB-231” value in the series on MDA-MB-231 cells (setting [11]) is given as “below 1”. In addition, the “Cytotoxicity to non-cancerous Mcf10A cells” value with MCF-10A cells is “refractory to the treatment”. Moreover, in series [5] (FIG. 3D right), the “Effect on growth of multiple myeloma RPMI8226 cells” value is given as “efficiently prevented growth”. Moreover, in series [6], the “Polyubiquitinated proteins in lysates of treated cells” value is listed as “accumulation of polyubiquitinated proteins”. Besides, in [7] (50 nM B1, model peptide substrate, FIG. 3F left), the “Total proteasome activity in lysates of treated cells versus DMSO control” value is “lower than in control cells”. Further, the “Partition of activities between core particle (20S) and 26S assembly” value in series [7] (50 nM B1, non-denaturing gels, FIG. 3F right) was “shifted in the B1-treated cells toward more of the 20S and less of the 26S proteasomes”. In addition, the “Inhibition of total chymotrypsin-like activity of the proteasome in Mcf7 lysate” value in series [8] was “well pronounced”. Moreover, in series [9], the “Effect on post-glutamyl peptidase of the core particle” value is “inhibits”. In series [10] (B1 treatment (100 nM)), the “Effect on open-gate/closed-gate conformers of the core proteasome (AFM)” value is given as “shift toward higher abundance of the open gate conformers”. In addition, in series [10], the “Content of open-gate conformers in the treated core particle (AFM)” value is “unusually high content of open-gate conformers”. Also, the “Combined effect with bortezomib on chymotrypsin-like activity of the core particle” value in series [1] (in vitro, FIG. 1D) is given as “synergizes with bortezomib”.
Turning to `CO[C@@H](C[C@@H]1CC[C@@H](C)[C@](O)(C(=O)C(=O)N2CCCC[C@H]2C(=O)[O-])O1)/C(C)=C/C=C/C=C/[C@@H](C)C[C@@H](C)C(=O)[C@H](OC)[C@H](O)/C(C)=C/[C@@H](C)C(=O)/C=C/[C@H](C)C[C@@H]1CC[C@@H](O)[C@H](OC)C1.[Na+]` [seco-rapamycin, reference compound], the “Content of open-gate conformers in the treated core particle (AFM)” value in series [10] is “unusually high content of open-gate conformers”.

The term IC50 denotes the concentration at which inhibition is half-maximal.
